# From ChEMBL document CHEMBL3885881, “DrugMatrix”
# Species on record: Rattus norvegicus
# Assay: DrugMatrix - Regimen: Daily Repeat
# Type: toxicity, organism-based, Sprague-Dawley
# Parameters: regimen Daily Repeat, gender Male, age 6-8 weeks
# Conditions: in vivo, po, route oral GAVAGE, vehicle 100 % WATER; for URIC ACID / ALANINE AMINOTRANSFERASE / ALBUMIN / ALKALINE PHOSPHATASE / ASPARTATE AMINOTRANSFERASE / BLOOD UREA NITROGEN / CARBON DIOXIDE / CHLORIDE / CHOLESTEROL / CREATININE / GLUCOSE / LACTATE DEHYDROGENASE / LIPASE / PHOSPHORUS / POTASSIUM / SODIUM / TOTAL BILIRUBIN / TOTAL PROTEIN / CREATINE PHOSPHOKINASE: tissue Plasma; for ABSOLUTE BASOPHIL / ABSOLUTE EOSINOPHIL / ABSOLUTE LYMPHOCYTE / ABSOLUTE MONOCYTE / ABSOLUTE SEGMENTED NEUTROPHIL / BASOPHIL / EOSINOPHIL / ERYTHROCYTE COUNT / HEMATOCRIT / HEMOGLOBIN / LEUKOCYTE COUNT / LYMPHOCYTE / MEAN CORPUSCULAR HEMOGLOBIN / MEAN CORPUSCULAR HEMOGLOBIN CONCENTRATION / MEAN CORPUSCULAR VOLUME / MONOCYTE / NEUTROPHIL / NUCLEATED RED BLOOD CELLS / PLATELET COUNT: tissue Blood
# [1] = 25 mg/kg, 120 h, dose level Low, time 5 day
# [2] = 120 mg/kg, 72 h, dose level High, time 3 day
# [3] = 120 mg/kg, 120 h, dose level High, time 5 day
smiles,measurement,setting,value
c1ccc([C@H]2CN3CCSC3=N2)cc1 [LEVAMISOLE],URIC ACID,"25 mg/kg, 72 h, dose level Low, time 3 day",1.67 mg/dL
same,ABSOLUTE BASOPHIL,[1],0 CELLS/uL
same,ABSOLUTE EOSINOPHIL,[1],174 CELLS/uL
same,ABSOLUTE LYMPHOCYTE,[1],12224.67 CELLS/uL
same,ABSOLUTE MONOCYTE,[1],328 CELLS/uL
same,ABSOLUTE SEGMENTED NEUTROPHIL,[1],1106.67 CELLS/uL
same,BASOPHIL,[1],0%
same,EOSINOPHIL,[1],1.33%
same,ERYTHROCYTE COUNT,[1],5.32 x10E6/uL
same,HEMATOCRIT,[1],33.6%
same,HEMOGLOBIN,[1],13.4 G/DL
same,LEUKOCYTE COUNT,[1],13.83 x10E3/uL
same,LYMPHOCYTE,[1],88.33%
same,MEAN CORPUSCULAR HEMOGLOBIN,[1],25.2 pg
same,MEAN CORPUSCULAR HEMOGLOBIN CONCENTRATION,[1],39.9 G/DL
same,MEAN CORPUSCULAR VOLUME,[1],63.2 fL
same,MONOCYTE,[1],2.33%
same,NEUTROPHIL,[1],8%
same,NUCLEATED RED BLOOD CELLS,[1],0 /100WBC
same,PLATELET COUNT,[1],1156 x10E3/uL
same,ALANINE AMINOTRANSFERASE,[1],50 u/L
same,ALBUMIN,[1],4.2 G/DL
same,ALKALINE PHOSPHATASE,[1],418 u/L
same,ASPARTATE AMINOTRANSFERASE,[1],86.33 u/L
same,BLOOD UREA NITROGEN,[1],17.67 mg/dL
same,CARBON DIOXIDE,[1],27.33 mmol/L
same,CHLORIDE,[1],100.67 MEQ/L
same,CHOLESTEROL,[1],69.67 mg/dL
same,CREATININE,[1],0.19 mg/dL
same,GLUCOSE,[1],136 mg/dL
same,LACTATE DEHYDROGENASE,[1],423 u/L
same,LIPASE,[1],11 u/L
same,PHOSPHORUS,[1],11.83 mg/dL
same,POTASSIUM,[1],6.36 MEQ/L
same,SODIUM,[1],141.8 MEQ/L
same,TOTAL BILIRUBIN,[1],0.23 mg/dL
same,TOTAL PROTEIN,[1],5.77 G/DL
same,URIC ACID,[1],1.4 mg/dL
same,ABSOLUTE BASOPHIL,[2],0 CELLS/uL
same,ABSOLUTE EOSINOPHIL,[2],0 CELLS/uL
same,ABSOLUTE LYMPHOCYTE,[2],11350 CELLS/uL
same,ABSOLUTE MONOCYTE,[2],85 CELLS/uL
same,ABSOLUTE SEGMENTED NEUTROPHIL,[2],565 CELLS/uL
same,BASOPHIL,[2],0%
same,EOSINOPHIL,[2],0%
same,ERYTHROCYTE COUNT,[2],7.38 x10E6/uL
same,HEMATOCRIT,[2],45.33%
same,HEMOGLOBIN,[2],17.77 G/DL
same,LEUKOCYTE COUNT,[2],12 x10E3/uL
same,LYMPHOCYTE,[2],94%
same,MEAN CORPUSCULAR HEMOGLOBIN,[2],24.1 pg
same,MEAN CORPUSCULAR HEMOGLOBIN CONCENTRATION,[2],39.17 G/DL
same,MEAN CORPUSCULAR VOLUME,[2],61.5 fL
same,MONOCYTE,[2],1%
same,NEUTROPHIL,[2],5%
same,NUCLEATED RED BLOOD CELLS,[2],0 /100WBC
same,PLATELET COUNT,[2],1087.67 x10E3/uL
same,ALANINE AMINOTRANSFERASE,[2],57.33 u/L
same,ALBUMIN,[2],4.4 G/DL
same,ALKALINE PHOSPHATASE,[2],373.67 u/L
same,ASPARTATE AMINOTRANSFERASE,[2],80.33 u/L
same,BLOOD UREA NITROGEN,[2],17.67 mg/dL
same,CARBON DIOXIDE,[2],28.33 mmol/L
same,CHLORIDE,[2],98 MEQ/L
same,CHOLESTEROL,[2],87.33 mg/dL
same,CREATINE PHOSPHOKINASE,[2],366 u/L
same,CREATININE,[2],0.2 mg/dL
same,GLUCOSE,[2],152 mg/dL
same,LACTATE DEHYDROGENASE,[2],277.67 u/L
same,LIPASE,[2],12 u/L
same,PHOSPHORUS,[2],12.7 mg/dL
same,POTASSIUM,[2],6.52 MEQ/L
same,SODIUM,[2],140.77 MEQ/L
same,TOTAL BILIRUBIN,[2],0.13 mg/dL
same,TOTAL PROTEIN,[2],6 G/DL
same,URIC ACID,[2],2.23 mg/dL
same,ABSOLUTE BASOPHIL,[3],0 CELLS/uL
same,ABSOLUTE EOSINOPHIL,[3],0 CELLS/uL
same,ABSOLUTE LYMPHOCYTE,[3],13503 CELLS/uL
same,ABSOLUTE MONOCYTE,[3],159 CELLS/uL
same,ABSOLUTE SEGMENTED NEUTROPHIL,[3],804.67 CELLS/uL
same,BASOPHIL,[3],0%
same,EOSINOPHIL,[3],0%
same,ERYTHROCYTE COUNT,[3],5.98 x10E6/uL
same,HEMATOCRIT,[3],36.6%
same,HEMOGLOBIN,[3],14.47 G/DL
same,LEUKOCYTE COUNT,[3],14.47 x10E3/uL
same,LYMPHOCYTE,[3],93.33%
same,MEAN CORPUSCULAR HEMOGLOBIN,[3],24.23 pg
same,MEAN CORPUSCULAR HEMOGLOBIN CONCENTRATION,[3],39.53 G/DL
same,MEAN CORPUSCULAR VOLUME,[3],61.17 fL
same,MONOCYTE,[3],1%
same,NEUTROPHIL,[3],5.67%
same,NUCLEATED RED BLOOD CELLS,[3],0 /100WBC
same,PLATELET COUNT,[3],1244.33 x10E3/uL
same,ALANINE AMINOTRANSFERASE,[3],67.33 u/L
same,ALBUMIN,[3],4.1 G/DL
same,ALKALINE PHOSPHATASE,[3],355.33 u/L
same,ASPARTATE AMINOTRANSFERASE,[3],137.33 u/L
same,BLOOD UREA NITROGEN,[3],19.33 mg/dL
same,CARBON DIOXIDE,[3],20.33 mmol/L
same,CHLORIDE,[3],101 MEQ/L
same,CHOLESTEROL,[3],84.33 mg/dL
same,CREATINE PHOSPHOKINASE,[3],932 u/L
same,CREATININE,[3],0.23 mg/dL
same,GLUCOSE,[3],177.33 mg/dL
same,LACTATE DEHYDROGENASE,[3],504.67 u/L
same,LIPASE,[3],12.67 u/L
same,PHOSPHORUS,[3],13.73 mg/dL
same,POTASSIUM,[3],6.59 MEQ/L
same,SODIUM,[3],143.9 MEQ/L
same,TOTAL BILIRUBIN,[3],0.27 mg/dL
same,TOTAL PROTEIN,[3],5.67 G/DL
same,URIC ACID,[3],3.13 mg/dL
